{"source": "patent US6803501B2", "about": "(Monsanto Technology, LLC, priority 2000, dated 2004)", "key": {"[1]": {"test_system": "E. coli EPSPS glyphosate-resistant isolate, single amino acid substitution of an alanine for the glycine at position 96", "conditions": "read-out: apparent Ki for glyphosate; alanine for glycine at position 96; cited from earlier work"}, "[2]": {"test_system": "E. coli SR481 cells expressing E. indica EPSP synthase (tolerant vs sensitive biotype)", "test": "growth of transgenic E. coli aroA- cells expressing E. indica EPSPS in the presence of glyphosate (FIG. 3)", "format": "cell-based", "conditions": "M9 minimal media, 0.0, 0.5, 1.5 or 5.0 mM glyphosate, 0-48 hours, vs sensitive biotype enzyme", "method": "The EPSP synthase mature protein-coding regions isolated from the glyphosate tolerant and glyphosate sensitive E. indica biotypes, can be directly compared for their ability to confer tolerance to glyphosate in transgenic hosts.\nThese sequences are employed in RT-PCR reactions to generate expression cassettes suitable for cloning into pMON45337 cut with the restriction enzymes Nde1 and EcoR1. RT-PCR reactions are performed with total RNAs extracted from frozen crown samples using the RNeasy Plant Mini Kit (cat.#74904, Qiagen Inc., Valencia, Calif.) per manufacturer's instructions. Oligo dT-primed first-strand cDNAs are prepared from 5 μg samples of total RNA using the Superscript Pre-Amplification System (cat.#18089-011, Life Technologies, Rockville, Md.) per manufacturer's instructions. Two μl of first-strand cDNA are then used to generate E. indica EPSP synthase expression cassettes via polymerase chain reaction. The oligonucleotides are added in 50 μl RT-PCR reactions at a final concentration of 0.4 μM. PCR amplifications are then performed using the Expand High Fidelity PCR System (cat.#1 732 641, Roche Molecular Biochemicals, Indianapolis, Ind.) per manufacturer's instructions, using a thermal profile of 94° C. for 30 seconds, then 57° C. for 2 minutes, followed by 75° C. for 3 minutes, for a total of 35 cycles. […]"}}, "data": [{"smiles": "O=C(O)CNCP(=O)(O)O", "note": "[glyphosate, N-phosphonomethylglycine]", "values": [{"measurement": "Ki", "setting": "[1]", "value": 4, "unit": "mM"}, {"measurement": "increase in tolerance to glyphosate due to EPSP synthase from tolerant E. indica biotype", "setting": "[2]", "value": "approximately three-fold increase in tolerance to glyphosate"}]}]}
